Values of other authors in patent publication US6348220B1, “Phenethylisothiocyanate nutraceutical compositions and methods” (Rutgers, the State University of New Jersey, priority 1999, dated 2002).

Test system: oxidation of nitrosamines from tobacco
Details: human smokers, PEITC from fresh watercress, urinary metabolites (Hecht et al., 1995)

## S=C=NCCc1ccccc1 [PEITC, phenethyl isothiocyanate]
  effect on oxidation of nitrosamines from tobacco: specifically inhibit the oxidation of nitrosamines from tobacco
